Laboratory results taken from US20250389737A1, “FACTOR Xa REAGENT” (Instrumentation Laboratory Company, priority 2024, published 2025).
Counter-ions that a name gives are not always drawn.

What was measured:
factor Xa [1] = molecular target: T1, factor Xa (Homo sapiens, UniProt P00742); conditions: 6 nkat/mL factor Xa in 20 mM Hepes pH 7.5, 1.5 mM substrate S-2732, 37° C., mAbs/min at 405 nm, concentrations in mM
Description: In this experiment, activity of factor Xa in the presence of guanidine sulfate and its derivatives (e.g., 1-methylguanidine sulfate, 1,1-dimethylguanidine sulfate, 1,1-diethylguanidine, N-benzyl, N-methylguanidine sulfate, 1,1,3,3-tetramethylgunidine and 1,1-dimethylbiguanide HCl) was evaluated using a chromogenic assay. In the experiment, each guanidine derivative was dissolved in deionized (DI) water to a final concentration of 100 mM. A number of such guanidine dilutions were prepared. Guanidine derivative levels in the solutions were tested in triplicate at 37° C. as follows: 40 μL (microliters) of each guanidine derivative level was incubated for 20 seconds(s) to 60 s before 40 μL of 6 nkat/mL factor Xa in 20 mM Hepes pH 7.5 buffer was added to the reaction. After an incubation period of 150 s to 180 s, 100 μL of 1.5 mM factor Xa chromogenic substrate S-2732™ was added to the reaction and milli-absorbance per minute (mAbs/min) at 405 nm (nanometers) was measured after a 20 s delay.

factor Xa [2] = molecular target: T1, factor Xa; experiment: chromogenic assay of the effects of guanidine sulfate and alkylated guanidines on factor Xa activity (FIG. 4); assay type: biochemical; conditions: 6 nkat/mL factor Xa in 20 mM HEPES pH 7.5, 1.5 mM substrate S-2732, mAbs/min at 405 nm, dilution series in water
Description: In this experiment, the effects of guanidine sulfate and the guanidine derivatives: 1-methylguanidine sulfate, 1,1-dimethylguanidine sulfate, 1,1-diethylguanidine, and N-benzyl, N-methylguanidine sulfate were analyzed using a chromogenic assay. A number of dilutions were prepared in water with guanidine or a guanidine derivative of the type described herein. 40 μL of each of the guanidine or guanidine derivatives were mixed for 20 s to 60 s with 40 μL of 6 nkat/mL factor Xa diluted in 20 mM HEPES, pH 7.5 buffer. After an incubation period of 150 s to 180 s, 100 μL of the factor Xa chromogenic substrate S-2732™ (1.5 mM) was added to each of the guanidine and factor Xa mixtures and each mixture was chromogenically measured at 405 nm mAbs/min after a 20 s delay.

factor Xa [3] = molecular target: T1, factor Xa; experiment: chromogenic factor Xa activity in a plasma sample containing dimethylguanidine, 9:1 sample to factor Xa ratio (FIG. 7); assay type: biochemical; conditions: 50 mM vs 25 mM dimethylguanidine, 1.5 mM S-2732, 37° C.
Description: In this experiment, 180 μL of a plasma sample containing dimethylguanidine (DMG) and 1.5 mM substrate S-2732™ were mixed with 20 μL of factor Xa (a 9:1 sample to factor Xa ratio). The activity of factor Xa was determined at 37° C. based on chromogenic activity of the substrate. The activity of factor Xa linearly correlates with the factor Xa concentration in the presence of dimethylguanidine. […] Thus, increasing the amount of dimethylguanidine in a sample reduces a rate of the reaction. In some implementations, dimethylguanidine can be added to a reaction at a concentration of up to about 500 mM.

factor Xa [4] = molecular target: T1, factor Xa; experiment: substrate turnover rates at different factor Xa levels, 1,1-dimethylguanidine compared with NaCl (FIG. 6); assay type: biochemical; conditions: 22 mM 1,1-dimethylguanidine vs 33 mM NaCl, 1.5 mM S-2732, 37° C., 405 nm
Description: Guanidine derivatives modulate factor Xa enzymatic activity in a reaction, as explained previously, thereby slowing-down the reaction. As a result, greater amounts and/or concentrations of factor Xa can be used in a reaction when a guanidine derivative is incorporated into the reaction. In this experiment, factor Xa levels were tested in a reaction in triplicate at 37° C. as follows: 40 μL of factor Xa was incubated for 20 s to 60 s before 40 μL of 100 mM 1,1-dimethylguanidine or 150 mM NaCl in water was added to the reaction. After an incubation period of 150 s to 180 s, 100 μL of 1.5 mM factor Xa chromogenic substrate S-2732™ was added to the reaction and mAbs/min at 405 nm was measured after a 20 s delay. In FIG. 6, substrate turnover rates (e.g., coloring of the substrate) in the presence of 22 mM 1,1-dimethylguanidine 601 were compared to substrate turnover rates in the presence of 33 mM NaCl 602. As evident from FIG. 6, greater amounts and/or concentrations of factor Xa can be added to the reaction in the presence of 1,1-dimethylguanidine to produce the same substrate turnover rates relative to NaCl. […] Greater amounts and/or concentrations of factor Xa facilitate detection of factor Xa inhibitors or reversal of such inhibitors in an assay, as noted previously.

T1 sequence (P00742 235-488 limits assumed): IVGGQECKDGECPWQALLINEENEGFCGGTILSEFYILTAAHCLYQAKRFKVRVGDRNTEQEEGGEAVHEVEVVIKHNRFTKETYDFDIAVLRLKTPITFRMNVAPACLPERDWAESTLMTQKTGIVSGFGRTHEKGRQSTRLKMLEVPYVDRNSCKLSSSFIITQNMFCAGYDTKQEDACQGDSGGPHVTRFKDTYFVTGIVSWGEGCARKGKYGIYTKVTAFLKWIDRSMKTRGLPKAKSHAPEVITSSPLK
T1 sequence (P00742 41-179 partner limits assumed): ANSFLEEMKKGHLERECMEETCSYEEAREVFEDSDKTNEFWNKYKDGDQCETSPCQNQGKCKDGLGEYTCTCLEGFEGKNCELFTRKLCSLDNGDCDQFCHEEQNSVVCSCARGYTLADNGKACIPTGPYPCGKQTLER

| SMILES | factor Xa activity plotted against guanidine derivative or NaCl concentration (factor Xa [1]) | extent of factor Xa inhibition (factor Xa [2]) | further results |
| --- | --- | --- | --- |
| CN(C)C(=N)NC(=N)N [1,1-dimethyl-biguanide, reference compound] | modulate factor Xa dose-dependently, although less than 1-methylated guanidine sulfate | – | – |
| CCN(CC)C(=N)N.O=S(=O)(O)O [1,1-diethylguanidine sulfate] | – | largest extent of factor Xa inhibition | – |
| CN(Cc1ccccc1)C(=N)N.O=S(=O)(O)O [N-benzyl N-methylguanidine sulfate] | – | reduced factor Xa inhibition as compared to the factor Xa inhibition of mixtures containing dialkylated guanidine derivatives | – |
| CNC(=N)N [1-methylguanidine sulfate] | modulates factor Xa dose-dependently | reduced factor Xa inhibition as compared to the factor Xa inhibition of mixtures containing dialkylated guanidine derivatives | – |
| CN(C)C(=N)N [1,1-dimethylguanidine] | – | – | rate of the factor Xa reaction (chromogenic activity) (factor Xa [3]): slows reaction of the factor Xa in a sample greater than 25 mM of dimethylguanidine; substrate turnover rates (reaction rate) relative to NaCl (factor Xa [4]): slowed-down |
| CN(C)C(=N)N.O=S(=O)(O)O [1,1-dimethylguanidine sulfate] | – | largest extent of factor Xa inhibition | – |
| N=C(N)N [guanidine sulfate] | modulate factor Xa dose-dependently, although less than 1-methylated guanidine sulfate | least amount of reduction in factor Xa inhibition | – |
| [Cl-].[Na+] [NaCl, reference compound] | activates factor Xa activity | – | – |
